# Measurements reported in paper PMC11528321 (RSC Medicinal Chemistry, 2024).
# “Also recorded” adds a separate entry of the source.
# Columns and labels:
# OE33 and FLO-1 cells = experiment: Antiproliferative screening, both OC cell lines together; assay type: cell-based, human; conditions: for antiproliferative activity (in words): dose range 0.003-30 μM
# AuroraA = biological target: T1, AuroraA (Homo sapiens, UniProt O14965); experiment: 33PanQinase kinome profiling; assay type: biochemical; conditions: mean, respect to DMSO control
# T1 sequence (O14965 1-403): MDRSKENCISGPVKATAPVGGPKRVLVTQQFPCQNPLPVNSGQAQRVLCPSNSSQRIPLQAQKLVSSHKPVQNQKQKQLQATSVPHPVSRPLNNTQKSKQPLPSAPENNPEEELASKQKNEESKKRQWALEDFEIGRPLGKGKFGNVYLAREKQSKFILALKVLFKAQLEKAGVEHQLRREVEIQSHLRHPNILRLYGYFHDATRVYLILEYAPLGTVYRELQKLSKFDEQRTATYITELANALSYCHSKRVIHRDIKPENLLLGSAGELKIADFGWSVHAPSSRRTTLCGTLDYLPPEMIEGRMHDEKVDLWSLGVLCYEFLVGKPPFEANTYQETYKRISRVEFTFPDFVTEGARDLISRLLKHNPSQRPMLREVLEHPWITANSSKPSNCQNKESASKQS
# FLT3 = biological target: T2, FLT3 (Homo sapiens, UniProt P36888); experiment: 33PanQinase kinome profiling; assay type: biochemical; conditions: mean, respect to DMSO control
# T2 sequence (P36888 564-993 limits assumed): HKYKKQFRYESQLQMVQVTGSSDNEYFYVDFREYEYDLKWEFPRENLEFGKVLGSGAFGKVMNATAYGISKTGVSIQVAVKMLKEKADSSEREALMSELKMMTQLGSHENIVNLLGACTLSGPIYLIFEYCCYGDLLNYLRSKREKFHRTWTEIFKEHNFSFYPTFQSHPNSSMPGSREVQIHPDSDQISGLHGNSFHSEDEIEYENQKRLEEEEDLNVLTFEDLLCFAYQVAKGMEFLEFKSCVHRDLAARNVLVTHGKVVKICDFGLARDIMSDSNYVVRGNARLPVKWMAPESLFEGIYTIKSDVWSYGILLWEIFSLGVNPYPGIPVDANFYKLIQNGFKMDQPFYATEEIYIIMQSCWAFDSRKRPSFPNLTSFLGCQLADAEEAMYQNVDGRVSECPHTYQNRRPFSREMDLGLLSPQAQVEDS
# OE33 cells = experiment: Cell cycle assay; assay type: cell-based, human; conditions: 3 μM, 72 h, vs DMSO control
# RET = RET (Homo sapiens, UniProt P07949); experiment: 33PanQinase kinome profiling; assay type: biochemical; conditions: mean, respect to DMSO control
# RET, sequence (P07949 29-1114): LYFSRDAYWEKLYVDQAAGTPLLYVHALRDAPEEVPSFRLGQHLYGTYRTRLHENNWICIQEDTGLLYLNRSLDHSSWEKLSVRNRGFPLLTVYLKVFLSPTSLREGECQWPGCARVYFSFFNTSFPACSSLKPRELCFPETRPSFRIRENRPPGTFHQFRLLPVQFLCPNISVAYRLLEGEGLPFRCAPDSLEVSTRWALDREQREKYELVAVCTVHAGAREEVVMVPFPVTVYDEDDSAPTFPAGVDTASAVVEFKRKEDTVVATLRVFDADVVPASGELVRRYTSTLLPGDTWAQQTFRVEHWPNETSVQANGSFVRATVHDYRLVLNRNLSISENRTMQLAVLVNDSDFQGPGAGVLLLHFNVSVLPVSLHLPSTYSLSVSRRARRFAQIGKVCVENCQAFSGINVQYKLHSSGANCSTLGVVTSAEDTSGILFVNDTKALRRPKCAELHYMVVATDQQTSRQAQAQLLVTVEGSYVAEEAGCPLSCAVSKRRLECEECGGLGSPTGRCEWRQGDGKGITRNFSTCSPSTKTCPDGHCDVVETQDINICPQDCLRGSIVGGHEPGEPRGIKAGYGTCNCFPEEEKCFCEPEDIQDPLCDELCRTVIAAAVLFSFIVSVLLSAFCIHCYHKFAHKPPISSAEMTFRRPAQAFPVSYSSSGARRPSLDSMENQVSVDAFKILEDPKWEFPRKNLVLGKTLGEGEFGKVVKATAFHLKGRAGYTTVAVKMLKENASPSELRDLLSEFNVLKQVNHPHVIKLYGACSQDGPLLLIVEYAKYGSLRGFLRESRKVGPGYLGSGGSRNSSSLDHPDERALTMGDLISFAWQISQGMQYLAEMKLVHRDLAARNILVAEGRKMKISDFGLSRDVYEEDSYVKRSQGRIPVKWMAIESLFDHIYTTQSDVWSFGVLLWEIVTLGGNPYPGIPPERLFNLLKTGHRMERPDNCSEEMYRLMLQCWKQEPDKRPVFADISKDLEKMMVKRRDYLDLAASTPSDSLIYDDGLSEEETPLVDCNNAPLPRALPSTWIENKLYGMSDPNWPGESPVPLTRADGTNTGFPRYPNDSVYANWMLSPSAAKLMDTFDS
# [1] = biological target: T3, Nano-Luc-Aurora A (fusion vector) in HEK293 (Homo sapiens, UniProt O14965); experiment: NanoBRET target engagement assay; assay type: cell-based; conditions: HEK293, 1 h treatment, 0.001-100 µM
# T3 sequence (O14965 1-403): T1 sequence (O14965 1-403)
# AXL = biological target: T4, AXL (Homo sapiens, UniProt P30530); experiment: 33PanQinase kinome profiling; assay type: biochemical; conditions: 1 μM
# T4 sequence (P30530 26-894): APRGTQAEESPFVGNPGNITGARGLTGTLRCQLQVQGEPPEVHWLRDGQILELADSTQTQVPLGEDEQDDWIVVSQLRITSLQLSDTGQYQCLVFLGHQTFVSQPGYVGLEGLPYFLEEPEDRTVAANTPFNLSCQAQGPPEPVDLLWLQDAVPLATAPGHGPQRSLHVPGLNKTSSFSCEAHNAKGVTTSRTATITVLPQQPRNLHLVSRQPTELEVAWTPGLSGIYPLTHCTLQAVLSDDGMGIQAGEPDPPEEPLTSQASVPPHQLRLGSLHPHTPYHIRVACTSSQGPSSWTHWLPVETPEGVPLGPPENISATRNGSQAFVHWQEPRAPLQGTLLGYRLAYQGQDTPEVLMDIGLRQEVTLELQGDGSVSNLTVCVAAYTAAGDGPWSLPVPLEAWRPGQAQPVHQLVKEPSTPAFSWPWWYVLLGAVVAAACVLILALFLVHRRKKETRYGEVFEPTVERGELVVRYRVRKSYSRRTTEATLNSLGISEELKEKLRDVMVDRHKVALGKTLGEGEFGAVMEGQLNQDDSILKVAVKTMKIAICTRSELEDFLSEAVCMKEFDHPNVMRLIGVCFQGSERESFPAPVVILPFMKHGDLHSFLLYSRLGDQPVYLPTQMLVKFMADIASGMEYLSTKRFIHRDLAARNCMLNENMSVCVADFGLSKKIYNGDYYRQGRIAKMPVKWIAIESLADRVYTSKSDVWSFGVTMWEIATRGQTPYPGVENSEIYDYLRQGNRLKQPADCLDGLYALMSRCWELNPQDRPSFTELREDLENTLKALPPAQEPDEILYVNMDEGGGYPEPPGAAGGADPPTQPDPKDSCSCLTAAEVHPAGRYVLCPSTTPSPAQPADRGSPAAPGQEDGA
# FLO-1 cells = experiment: Cell cycle assay; assay type: cell-based, human; conditions: 3 μM, 72 h, vs DMSO control
smiles,measurement,setting,value
COC1CCN(C(=O)/C=C/c2nn(CC3CCCC3)c3ncnc(N)c23)CC1 [1A7],antiproliferative activity (in words),OE33 and FLO-1 cells,completely inactive
CNc1ncc2c(/C=C/C(=O)N3CCC4(CC3)OCCO4)nn(Cc3cccc(C)c3)c2n1 [2C4],fold increase in antiproliferative potency over 2B10,OE33 and FLO-1 cells; compared with 2B10,2 fold
"CNc1ncc2c(/C=C/C(=O)N3CCC(OC)CC3)nn(Cc3cccc(C(F)(F)F)c3)c2n1 [2D7, (2E)-1-(4-Methoxypiperidin-1-yl)-3-[6-(methylamino)-1-{[3-(trifluoromethyl)phenyl]methyl}-1H-pyrazolo[3,4-d]pyrimidin-3-yl]prop-2-en-1-one]",% Inhibition [1uM],AuroraA,> 50%
same,% Inhibition [1uM],FLT3,minimal to no inhibition
same,effect on the cell cycle (in words),OE33 cells,rapid arrest of cells in the G2/M phase; also recorded: slight increase in the number of cells in the sub-G1 phase
same,% Inhibition [1uM],RET,minimal to no inhibition
same,AURKA target engagement in cells (in words),[1],direct dose-dependent binding
same,inhibition of AXL (in words),AXL,minimal to no inhibition
same,effect on the cell cycle (in words),FLO-1 cells,enrichment of cells in the S and G2/M phases
Nc1ncnc2c1c(/C=C/C(=O)O)nn2CC1CCCC1 [compound 10],antiproliferative activity (in words),OE33 and FLO-1 cells,lack of activity
CNc1ncc2c(/C=C/C(=O)O)nn(CC3CCCC3)c2n1 [compound 12],antiproliferative activity (in words),OE33 and FLO-1 cells,lack of activity
